We go through 17 compounds from patent EP4737451A1 (Dong Wha Pharm. Co., Ltd., priority 2023, dated 2025).

The term inhibition denotes the change of the read-out against control, counted positive when it falls.

One test deals with hPBMC TNFα. Kind of test: Cell-based inflammatory cytokine secretion inhibition (LPS-stimulated PBMC, hTNF-α ELISA). The note with it: human PBMC, LPS 1 µg/mL, hTNF-α by ELISA, mean; read-out: hPBMC TNFα IC50_mean. The procedure: An experiment on inflammatory cytokine secretion inhibition of the compound of the present invention was conducted.
PBMC (LONZA, peripheral blood mononuclear cells) isolated from human whole blood was dispensed into a 96-well plate at a density of 1.0 X 10^5 cells/well, and the cells were stabilized for 20 hours. After that, a test compound diluted at each of four concentrations was added to a Roswell Park Memorial Institute (RPMI) medium, reacted for one hour, treated with lipopolysaccharide (LPS) to reach a final concentration of 1 µg/mL, and further reacted for one hour. hTNF-α, which is an inflammatory cytokine, was measured by an enzyme linked immunosorbent assay using an ELISA kit from Goma Biotech. A cell supernatant, a standard drug, and an antibody were added to an ELISA-plate and reacted for four hours in total, after which the plate was washed, reacted with streptavidin-HRP for 30 minutes, and washed again. After that, a TMB substrate was added and reacted in a dark place, and when a color was sufficiently developed, a stop solution was added to stop the reaction. hTNF-α was measured by measuring absorbance at 450 nm using equipment for absorption measurement (Microplate Reader from BioTeK). An activity inhibition rate was calculated from a measured absorbance value, a % inhibition for each concentration of the test compound was calculated, a 50% inhibition concentration (IC50 value) was analyzed through a non-linear regression analysis, and the results are shown in Table 4.
(In an ELISA, binding on a coated surface is turned into a signal by an enzyme label.)

The target in a further test is T1, IRAK4 enzyme (Homo sapiens, UniProt Q9NWZ3).
T1 construct: purchased Promega V2621
T1 sequence (Q9NWZ3 1-460): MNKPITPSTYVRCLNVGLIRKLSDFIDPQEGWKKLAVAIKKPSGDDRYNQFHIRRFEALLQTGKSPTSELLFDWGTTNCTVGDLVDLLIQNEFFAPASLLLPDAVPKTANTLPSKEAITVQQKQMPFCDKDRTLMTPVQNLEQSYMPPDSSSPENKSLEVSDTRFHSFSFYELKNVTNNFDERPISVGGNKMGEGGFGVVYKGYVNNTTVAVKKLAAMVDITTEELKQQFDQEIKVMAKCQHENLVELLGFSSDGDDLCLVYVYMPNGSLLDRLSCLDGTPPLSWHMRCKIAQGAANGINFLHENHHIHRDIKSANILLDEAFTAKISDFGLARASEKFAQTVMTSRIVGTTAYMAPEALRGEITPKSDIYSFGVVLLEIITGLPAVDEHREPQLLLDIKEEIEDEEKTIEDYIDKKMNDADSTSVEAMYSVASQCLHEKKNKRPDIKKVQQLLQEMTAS
Briefly: IRAK4 enzyme activity inhibition (ADP-Glo, Promega kit). The format is biochemical. The procedure:
An experiment on IRAK4 enzyme activity inhibition of the compound of the present invention was conducted.
An IRAK4 enzyme kit (purchased from Promega, product number: V2621) was used to dilute a mixed solution between 0.1 µg/µL of myelin basic protein (MBP), which is an enzyme-reactive substrate, and 1.25 mM of ATP with a reaction buffer (40 mM Tris-HCl, pH 7.5; 20 mM MgCl2; 0.1 mg/mL BSA; 50 µM DTT) according to the instructions, so as to dispense 2 µL in a 384-well white plate, and then to add 1 µL of a test compound, which was gradient diluted starting from 1 mM, to a 384-well plate. After that, an IRAK4 enzyme was diluted with a reaction buffer to a final concentration of 5 ng/µL, then 2 µL/well was dispensed into a 384-well white plate and reacted at 37°C for 60 minutes. After completion of a reaction, an ADP-GloTM enzyme test kit (purchased from Promega, product number: V9102) was used to add 5 µL of ADP-Glo reaction reagent and cause a reaction at 37°C for 40 minutes, and then 10 µL of enzyme chromogenic reagent was added again to measure a luminescence signal using equipment for measuring absorbance (THECAN, Microplate Reader). An activity inhibition rate was calculated from a measured value, and a 50% inhibition concentration (IC50 value) was analyzed through a non-linear regression analysis based on the % inhibition for each concentration of the test compound, and is shown in Table 2.
For orientation: In ADP-Glo the light output rises with the ADP produced.

For another test, the target named is T2, IRAK1 enzyme (Homo sapiens, UniProt P51617).
T2 construct: purchased Promega VA7477
T2 sequence (P51617 whole entry): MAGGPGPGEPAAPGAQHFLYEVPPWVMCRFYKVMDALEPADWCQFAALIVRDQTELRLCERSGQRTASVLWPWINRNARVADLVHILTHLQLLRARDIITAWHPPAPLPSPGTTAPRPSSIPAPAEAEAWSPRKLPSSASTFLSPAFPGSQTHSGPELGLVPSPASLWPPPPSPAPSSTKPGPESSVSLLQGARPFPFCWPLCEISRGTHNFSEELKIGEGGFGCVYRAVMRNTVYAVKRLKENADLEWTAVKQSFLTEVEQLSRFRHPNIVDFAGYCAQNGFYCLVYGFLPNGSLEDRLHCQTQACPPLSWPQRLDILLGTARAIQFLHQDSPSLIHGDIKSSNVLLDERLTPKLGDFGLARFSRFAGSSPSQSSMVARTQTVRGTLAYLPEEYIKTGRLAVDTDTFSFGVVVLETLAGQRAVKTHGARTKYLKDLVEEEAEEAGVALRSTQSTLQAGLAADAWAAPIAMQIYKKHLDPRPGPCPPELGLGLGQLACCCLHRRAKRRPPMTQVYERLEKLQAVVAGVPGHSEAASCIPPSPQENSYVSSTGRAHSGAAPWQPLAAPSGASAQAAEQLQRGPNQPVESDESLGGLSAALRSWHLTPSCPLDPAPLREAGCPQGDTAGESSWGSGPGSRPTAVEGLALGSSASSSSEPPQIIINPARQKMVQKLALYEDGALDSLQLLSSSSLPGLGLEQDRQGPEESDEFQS
Briefly: IRAK1 enzyme activity inhibition (ADP-Glo, Promega kit). The class given is biochemical. The note with it: for inhibition at 0.1 µM: test compound 0.1 uM. The procedure:
An experiment on IRAK1 enzyme activity inhibition of the compound of the present invention was conducted.
An IRAK1 enzyme kit (purchased from Promega, product number: VA7477) was used to dilute a mixed solution between 0.1 µg/µL of protein kinase B (AKT), which is an enzyme-reactive substrate, and 1.25 mM of ATP with a reaction buffer (40 mM Tris-HCl, pH 7.5; 20 mM MgCl2; 0.1 mg/mL BSA; 50 µM DTT) according to the instructions, so as to dispense 2 µL in a 384-well white plate, and then to add 1 µL of a test compound, which was gradient diluted starting from 1 mM, to a 384-well white plate. After that, an IRAK1 enzyme was diluted with a reaction buffer to a final concentration of 5 ng/µL, then 2 µL/well was dispensed into a 384-well white plate and reacted at 37°C for 60 minutes. After completion of a reaction, an ADP-GloTM enzyme test kit (purchased from Promega, product number: V9102) was used to add 5 µL of ADP-Glo reaction reagent and cause a reaction at 37°C for 40 minutes, and then 10 µL of enzyme chromogenic reagent was added again to measure a luminescence signal using equipment for measuring absorbance (THECAN, Microplate Reader). An activity inhibition rate was calculated from a measured value, and a 50% inhibition concentration (IC50 value) was analyzed through a non-linear regression analysis based on the % inhibition for each concentration of the test compound, and is shown in Table 3.

For the compound `CC(C)(O)CCn1cc2cc(NC(=O)c3cncc([N+](=O)[O-])c3)c(N3CCOCC3)cc2n1` [Example 2, N-(2-(3-hydroxy-3-methylbutyl)-6-morpholino-2H-indazol-5-yl)-5-nitronicotinamide], the values for the IC50 in the test on hPBMC TNFα and against IRAK4 enzyme were 526 nM and 56.7 nM, respectively. Also, the inhibition at 0.1 µM on IRAK4 enzyme (test compound 0.1 uM) amounted to 72.7%; at IRAK1 enzyme, 32.1%. The inhibition at 1 µM against IRAK4 enzyme (test compound 1 uM) amounted to 86.5%.

`CC(C)(O)CCn1cc2cc(NC(=O)c3cccc([N+](=O)[O-])c3)c(N3CCOCC3)cc2n1` [Example 3, N-(2-(3-hydroxy-3-methylbutyl)-6-morpholino-2H-indazol-5-yl)-3-nitrobenzamide]: the IC50 worked out at 51.8 nM with hPBMC TNFα, 0.2 nM against IRAK4 enzyme and 2600 nM against IRAK1 enzyme. On IRAK4 enzyme (test compound 0.1 uM), this compound gave an inhibition at 0.1 µM of 81.7%. At IRAK4 enzyme (test compound 1 uM), this compound came in with an inhibition at 1 µM of 94.4%.

Compound `CN(C)c1cc2nn(CCC(C)(C)O)cc2cc1NC(=O)c1cccc([N+](=O)[O-])c1` [Example 38, N-(6-(dimethylamino)-2-(3-hydroxy-3-methylbutyl)-2H-indazol-5-yl)-3-nitrobenzamide] displayed an IC50 against IRAK4 enzyme of 5.1 nM. The inhibition at 0.1 µM was determined as 87.9% on IRAK4 enzyme (test compound 0.1 uM) and 4.6% at IRAK1 enzyme.

`CC(C)(O)CCn1cc2cc(NC(=O)c3cccc(S(N)(=O)=O)c3)c(-c3ccc(CN4CCOCC4)cc3)cc2n1` [Example 39, N-(2-(3-hydroxy-3-methylbutyl)-6-(4-(morpholinomethyl)phenyl)-2H-indazol-5-yl)-3-sulfamoylbenzamide]: the inhibition at 0.1 µM turned out to be 69.7% on IRAK4 enzyme (test compound 0.1 uM) and 23% against IRAK1 enzyme. The compound also displayed an inhibition at 1 µM on IRAK1 enzyme (test compound 1 uM) of 35.2%.

Turning to `CC(C)(O)CCn1cc2cc(NC(=O)c3cccc([N+](=O)[O-])c3)c(N3CCSCC3)cc2n1` [Example 40, N-(2-(3-hydroxy-3-methylbutyl)-6-thiomorpholino-2H-indazol-5-yl)-3-nitrobenzamide], the inhibition at 0.1 µM was 69.7% against IRAK4 enzyme (test compound 0.1 uM) and 6.5% on IRAK1 enzyme. For the same compound, the inhibition at 1 µM against IRAK1 enzyme (test compound 1 uM) came to 11.2%.

Take `CNC(=O)CNC(=O)c1ccc(-c2cc3nn(CCC(C)(C)O)cc3cc2NC(=O)c2cccc([N+](=O)[O-])c2)cc1` [Example 41, N-(2-(3-hydroxy-3-methylbutyl)-6-(4-((2-(methylamino)-2-oxoethyl)carbamoyl)phenyl)-2H-indazol-5-yl)-3-nitrobenzamide]: the inhibition at 0.1 µM against IRAK4 enzyme (test compound 0.1 uM) came to 69%; at IRAK1 enzyme, 0.4%.

Regarding `CC(C)(O)CCn1cc2cc(NC(=O)c3cccc([N+](=O)[O-])c3)c(-c3ccc(C(=O)NCC(N)=O)cc3)cc2n1` [Example 43, N-(6-(4-((2-amino-2-oxoethyl)carbamoyl)phenyl)-2-(3-hydroxy-3-methylbutyl)-2H-indazol-5-yl)-3-nitrobenzamide], the inhibition at 0.1 µM at IRAK4 enzyme (test compound 0.1 uM) worked out at 63%; on IRAK1 enzyme, 1.7%.

Regarding `CC(C)(O)Cn1cc2cc(NC(=O)c3cccc([N+](=O)[O-])c3)c(N3CCSCC3)cc2n1` [Example 45, N-(2-(2-hydroxy-2-methylpropyl)-6-thiomorpholino-2H-indazol-5-yl)-3-nitrobenzamide], the inhibition at 0.1 µM on IRAK4 enzyme (test compound 0.1 uM) was determined as 59.6%. In addition, the inhibition at 1 µM came out at 75% against IRAK4 enzyme (test compound 1 uM) and 0% on IRAK1 enzyme (test compound 1 uM).

For the compound `CC(C)(O)CCn1cc2cc(NC(=O)c3cccc(S(N)(=O)=O)c3)c(-c3ccc(C(N)=O)cc3)cc2n1` [Example 46, N-(6-(4-carbamoylphenyl)-2-(3-hydroxy-3-methylbutyl)-2H-indazol-5-yl)-3-sulfamoylbenzamide], the results for the inhibition at 0.1 µM on IRAK4 enzyme (test compound 0.1 uM) and on IRAK1 enzyme were 57.5% and 3.2%, respectively.

Turning to `CCOC(=O)[C@H](NC(=O)c1ccc(-c2cc3nn(CCC(C)(C)O)cc3cc2NC(=O)c2cccc(S(N)(=O)=O)c2)cc1)C(C)C` [Example 47, Ethyl (4-(2-(3-hydroxy-3-methylbutyl)-5-(3-sulfamoylbenzamido)-2H-indazol-6-yl)benzoyl)-D-valinate], the inhibition at 0.1 µM amounted to 56.8% against IRAK4 enzyme (test compound 0.1 uM) and 1.3% on IRAK1 enzyme.

Turning to `COC(=O)CCNC(=O)c1cncc(-c2cc3nn(CCC(C)(C)O)cc3cc2NC(=O)c2cccc(S(N)(=O)=O)c2)c1` [Example 48, Methyl 3-(5-(2-(3-hydroxy-3-methylbutyl)-5-(3-sulfamoylbenzamido)-2H-indazol-6-yl)nicotinamido)propanoate], the inhibition at 0.1 µM on IRAK4 enzyme (test compound 0.1 uM) amounted to 56.7%; on IRAK1 enzyme it was 39.7%.

`CC(C)(O)CCn1cc2cc(NC(=O)c3cccc(C(N)=O)c3)c(-c3ccc(C(=O)NCc4ccoc4)cc3)cc2n1` [Example 49, N-(6-(4-((furan-3-ylmethyl)carbamoyl)phenyl)-2-(3-hydroxy-3-methylbutyl)-2H-indazol-5-yl)isophthalamide]: the figures for the inhibition at 0.1 µM on IRAK4 enzyme (test compound 0.1 uM) and against IRAK1 enzyme were 55.4% and 27.7%, respectively. Further, at IRAK1 enzyme (test compound 1 uM), the inhibition at 1 µM came out at 31.6%.

`CC(C)(O)Cn1cc2cc(NC(=O)c3cccc([N+](=O)[O-])c3)c(-c3ccsc3)cc2n1` [Example 50, N-(2-(2-hydroxy-2-methylpropyl)-6-(thiophen-3-yl)-2H-indazol-5-yl)-3-nitrobenzamide] registered an inhibition at 0.1 µM against IRAK4 enzyme (test compound 0.1 uM) of 55.1%. For the same compound, the figures for the inhibition at 1 µM at IRAK4 enzyme (test compound 1 uM) and on IRAK1 enzyme (test compound 1 uM) were 68.8% and 9.6%, respectively.

Consider `CNC(=O)[C@@H](C)NC(=O)c1cncc(-c2cc3nn(CCC(C)(C)O)cc3cc2NC(=O)c2cccc(S(N)(=O)=O)c2)c1` [Example 51, (R)-5-(2-(3-hydroxy-3-methylbutyl)-5-(3-sulfamoylbenzamido)-2H-indazol-6-yl)-N-(1-(methylamino)-1-oxopropan-2-yl)nicotinamide], for which the results for the inhibition at 0.1 µM at IRAK4 enzyme (test compound 0.1 uM) and at IRAK1 enzyme were 48.8% and 0%, respectively.

As for `CS(=O)(=O)CCn1ncc2cc(NC(=O)c3cccc([N+](=O)[O-])c3)c(N3CCOCC3)cc21` [Example 52, N-(1-(2-(methylsulfonyl)ethyl)-6-morpholino-1H-indazol-5-yl)-3-nitrobenzamide], the inhibition at 0.1 µM was found to be 21.2% at IRAK4 enzyme (test compound 0.1 uM) and 0% on IRAK1 enzyme.

On to `CS(=O)(=O)CCn1cc2cc(NC(=O)c3cccc(S(N)(=O)=O)c3)c(N3CCOCC3)cc2n1` [Example 53, N-(2-(2-(methylsulfonyl)ethyl)-6-morpholino-2H-indazol-5-yl)-3-sulfamoylbenzamide], for which the inhibition at 0.1 µM on IRAK4 enzyme (test compound 0.1 uM) came out at 2.7%; at IRAK1 enzyme it was 13.9%.

For “N-(1-(3-hydroxy-3-methylbutyl)-6-morpholino-1H-indazol-5-yl)-3-nitrobenzamide [Example 28]”, the “IRAK4 %enzyme inhibition (0.1 uM)” value on IRAK4 enzyme (test compound 0.1 uM) is on record as 56.1%. Moreover, on IRAK4 enzyme (test compound 1 uM), the “IRAK4 %enzyme inhibition (1 uM)” value turned out to be 89.9%. In addition, the “IRAK1 %enzyme inhibition (1 uM)” value on IRAK1 enzyme (test compound 1 uM) was 9.10%.
